In patent US20160183556A1, “METHOD FOR PRODUCING FEED ADDITIVE CONTAINING SURFACTIN” (SAFT biotechnology com. LTD, priority 2014, published 2016):
Values after ≈ are worked out from the molar mass of the structure shown. Where two headings read alike, the source gives them in different places. Starred links: 1 amine or outer side, 2 acyl side, 3 side chain; linkers in the order of their positions; H or OH if unused. Positions of bridges follow the written chain, without caps; N, C: chain ends. Non-standard residues stand in square brackets, D forms with d. Residues, ends and D or L forms follow the SMILES beside them. X1 = CC(C)CCCCCCCCC[C@H](CC(=O)[*:1])O[*:2]

Tests used:
Vibrio salmonicida = assay: in vitro susceptibility test (MIC); format: cell-based; conditions: 37° C., OD540, read-out: minimum inhibiting concentration (MIC)
Procedure: (§1) To examine whether surfactin has antimicrobial activity, in vitro susceptibility test was conducted.
(§2) Preparation of bacterial culture of Escherichia coli DH5α, Vibrio harveyi, Vibrio alginolyticus, Vibrio anguillarum, Vibrio salmonicida, Aeromonas hydrophila and Staphylococcus epidermidis by inoculation of these bacteria onto LBA (E. coli·DH5α) or TSA (+1.5% NaCl) and incubation at 37° C. for 16 hours. Later, the colonies were scraped off and dissolved in specific medium; the concentration was adjusted to OD540 of 1 (1×10^9 colonies/c.c. culture medium), 100 μl of bacterial culture were add to 900 μl of LB or TSB (+1.5% NaCl) to give a concentration of […].
(§3) An aliquot of 130 μl of the bacterial culture was added to each well of a 96-well plate, the concentration of bacterial culture was 5×10^5 CFU/ml, 20 μl of surfactin at different concentrations prepared by titration were added and incubated at 37° C. for 16 hours. A spectrophotometer was used to calculate the concentration of bacterial growth and the obtained data was compared with the original value (OD540=1), the concentration of the experimental group that equals to the original value is used as the minimum inhibiting concentration (MIC). Each group was prepared in triplicate and a control group was included.

[1] = tested on: Staphylococcus epidermidis; assay: in vitro susceptibility test (MIC); format: cell-based; conditions: 37° C., OD540, read-out: minimum inhibiting concentration (MIC)
Procedure: as §1, §2, §3

Escherichia coli DH5α = assay: in vitro susceptibility test (MIC); format: cell-based; conditions: E. coli, 37° C.
Procedure: as §1, §2, §3

Vibrio anguillarum = assay: in vitro susceptibility test (MIC); format: cell-based; conditions: 37° C., OD540, read-out: minimum inhibiting concentration (MIC)
Procedure: as §1, §2, §3

Vibrio alginolyticus = assay: in vitro susceptibility test (MIC); format: cell-based; conditions: 37° C., OD540, read-out: minimum inhibiting concentration (MIC)
Procedure: as §1, §2, §3

Vibrio harveyi = assay: in vitro susceptibility test (MIC); format: cell-based; conditions: 37° C., OD540, read-out: minimum inhibiting concentration (MIC)
Procedure: as §1, §2, §3

Aspergillus niger = assay: in vitro susceptibility test (MIC), fungal culture; format: cell-based; conditions: read-out: minimum inhibiting concentration (MIC)
Procedure: as §1
Aspergillus niger was inoculated onto the MEAIII plate and incubated at 25° C. for 48 hours, the colonies were scraped off into specific culture medium. Bacterial culture was spread onto the MEAIII plate after serial dilution and the number of colonies was calculated, the original concentration was determined to be 1×10^6 CFU/ml. An aliquot of 500 μl of the bacterial culture was add to 500 μl of MEB before diluting the concentration of bacterial culture to 5×10^5 CFU/ml.
as §3

[2] = surfactin 20 μM; reduced from 72 mN/m; cited from earlier work
nervous necrosis virus = assay: effect of surfactin on morphology of virus particles (transmission electron microscope)
Procedure: Surfactin was dissolved in sterilized water and the solution was filtered with a 0.2 μm filter membrane, followed by dilution of dissolved surfactin in 1% FBS-L15 to give diluted surfactin solution at the concentrations of 40 μg/ml and […]. The surfactin treatment group: surfactin and virus in the volume ratio of 1:1 were mixed. Control group: 1% FBS-L15 culture medium with NNV culture were mixed and incubated at 28° C. for 1 day before examination under a transmission electron microscope (Hitachi H-600). An aliquot of 6 μl of the surfactin treatment group was dropped onto a copper mesh to allow precipitation of the virus for about 10 minutes before been stained in 1% phosphotungstic acid (PTA, Sigma) at pH 7.4. After staining, excess mixture was removed with filter paper and incubated at room temperature for 30 minutes. The sample was examined after the copper mesh was air-dried. The voltage used for transmission electron microscope was 75 KV and the exposure time of the film was 4 seconds. The removed negative film was placed on the rack and soaked in the developer D19 for 4 minutes to develop the image. After completion of development, the film was soaked in 0.33% glacial acetic acid to stop the reaction followed by 10 minutes in fixative. Finally, excess chemicals were removed by placing the film under running water for 60 minutes before drying.

Aeromonas hydrophila = assay: in vitro susceptibility test (MIC); format: cell-based; conditions: 16 h, 37° C., OD540, read-out: minimum inhibiting concentration (MIC)
Procedure: as §1, §2, §3

Iridovirus = assay: effect of surfactin on morphology of virus particles (transmission electron microscope)
bacterial culture = assay: in vitro susceptibility test (MIC), summary statement of the text; format: cell-based
Procedure: as §1, §2, §3

Row | Structure (SMILES) | MIC (Vibrio salmonicida; 16 hours) [µM] | MIC ([1]; 16 hours) [µM] | MIC (Escherichia coli DH5α; 16 hours, OD540, read-out: minimum inhibiting concentration (MIC)) [µM] | MIC (Vibrio anguillarum; 16 hours) [µM] | MIC (Vibrio alginolyticus; 16 hours) [µM] | MIC (Vibrio harveyi; 16 hours) [µM] | MIC (Aspergillus niger) [µM] | surface tension of water [2] [mN/m] | morphology of nervous necrosis virus particles (nervous necrosis virus; 40 μg/ml surfactin + nervous necrosis virus, FIG. 2A (D)) | morphology of nervous necrosis virus particles (nervous necrosis virus; 100 μg/ml surfactin + nervous necrosis virus, FIG. 2A (E)) | MIC (Vibrio salmonicida; Aliivibrio salmonicida, 16 h) [µM] | MIC ([1]; 16 h) [µM] | MIC (Escherichia coli DH5α; Escherichia coli, 16 h, OD540, read-out: minimum inhibiting concentration (MIC)) [µM] | MIC (Vibrio anguillarum; 16 h) [µM] | MIC (Aeromonas hydrophila) [µM] | MIC (Vibrio alginolyticus; 16 h) [µM] | MIC (Vibrio harveyi; 16 h) [µM] | morphology of Iridovirus particles (Iridovirus; 10 μg/ml surfactin + Iridovirus, FIG. 2B (B)) | morphology of Iridovirus particles (Iridovirus; 40 μg/ml surfactin + Iridovirus, FIG. 2B (C)) | MIC (bacterial culture) [µM]
1 | CC(C)CCCCCCCCC[C@@H]1CC(=O)N[C@@H](CCC(=O)O)C(=O)N[C@@H](CC(C)C)C(=O)N[C@H](CC(C)C)C(=O)N[C@@H](C(C)C)C(=O)N[C@@H](CC(=O)O)C(=O)N[C@H](CC(C)C)C(=O)N[C@@H](CC(C)C)C(=O)O1 [surfactin produced by the high-yield mutant strain of Bacill] (EL[dL]VD[dL]L; linker N-C via X1) | 96.5 (≈ 100 µg/mL) | 96.5 (≈ 100 µg/mL) | 96.5 (≈ 100 µg/mL) | 96.5 (≈ 100 µg/mL) | 96.5 (≈ 100 µg/mL) | 96.5 (≈ 100 µg/mL) | 128.7 (≈ 133 µg/mL) | – | – | – | – | – | – | – | – | – | – | – | – | –
2 | CC(C)CCCCCCCCC[C@@H]1CC(=O)N[C@@H](CCC(=O)O)C(=O)N[C@@H](CC(C)C)C(=O)N[C@H](CC(C)C)C(=O)N[C@@H](C(C)C)C(=O)N[C@@H](CC(=O)O)C(=O)N[C@H](CC(C)C)C(=O)N[C@@H](CC(C)C)C(=O)O1 [surfactin] (EL[dL]VD[dL]L; linker N-C via X1) | – | – | – | – | – | – | 193 (≈ 200 µg/mL) | 27 | normal viral particles | abnormal viral particles | 129 (≈ 133 µg/mL) | 129 (≈ 133 µg/mL) | 193 (≈ 200 µg/mL) | 129 (≈ 133 µg/mL) | 129 (≈ 133 µg/mL) | 129 (≈ 133 µg/mL) | 129 (≈ 133 µg/mL) | the appearance of said virus has changed | adhesion between surfactin and viruses is observed | 96.5 (≈ 100 µg/mL)
